According to patent US20070036809A1, “Tolerance-induced targeted antibody production” (priority 2003, published 2007):

Columns and labels:
[1] = tested on: BMRPA1 cells; assay: NNK exposure of BMRPA1 cells, morphology; format: cell-based, rat; settings: one 16 hour exposure
Description: NNK Exposures: All preparations of the carcinogen-containing media were made in a separate laboratory within a NCI-designed and certified chemical hood using prescribed protective measures. NNK (American Health Foundation, N.Y.) was prepared as a stock solution of 10 mg NNK in PBS and added to FBS-free cRPMI to make final concentrations of 100, 50, 10, 5, and 1 μg/ml. BMRPA1 cells at passage 36 (p36) were seeded at 10^5/60 mm TCDs and allowed to grow for 6 d. At this time the medium was removed, and the cells were washed 2× with prewarmed (37° C.), FBS-free cRPMI before they were treated with FBS-free cRPMI (4 ml/TCD) containing the different concentrations of NNK. A 6th set of TCDs containing BMRPA1 cells was incubated in FBS-free cRPMI without NNK and was used as controls. The eight TCDs used for each of the six sets of different culture conditions were returned to the 37° C. and 95% air-5% CO2 incubator. After 16 h, the NNK-containing medium was removed from all TCDs and the cells were washed 3× with PBS followed by addition of fresh cRPMI-10% FBS (4 ml/TCD), and the incubation continued. Control cultures without NNK were processed in parallel. The cells were fed every 2 d by replacing ½ of the spent medium with fresh cRPMI-10% FBS. At full confluency the cells were collected from all TCDs, the cells in each group were pooled, and passaged at 2×10^4 into fresh TCDs.

[2] = tested on: BMRPA1 antigens
Description: Immunosubtractive Hyperimmunization Protocol (ISHIP): A mixture of live (10^6) and paraformaldehyde fixed and washed (10^6) cells was used for each immunization intraperitoneally (ip). Six female Balb/c mice (age˜12 wks) (Harlan-Sprague Dawley Labs, St. Louis) were used: two mice were injected 4× during standard immunizations with BMRPA1 cells. […] The other two immunosuppressed mice were injected weekly three more times with transformed BMRPA1.NNK cells, and a week later the mice were hyperimmunized with 5 additional injections of transformed BMRPA1.NNK cells in the 10 days preceding fusion (ISHIP mice). Sera were obtained from all mice within a week after the indicated number of immunizations.
Cell-Enzyme ImmunoAssay (Cell-EIA): BMRPA1 and BMRPA1.NNK cells were seeded in TCPs (96-wells) at 3×10^4/well with 0.1 mL cRPMI-10% FBS. The cells were allowed to adhere for 24 h, air dried, and stored under vacuum at RT. The cells were then rehydrated with PBS-1% BSA, followed by addition of either hybridoma supernatants or two fold serial dilutions of mouse sera to each well for 45 min at room temperature (RT). After washing with PBS-BSA, HRP-GαMIgG (1:100 in PBS-1% BSA) was added to each well for 45 min at RT. […] The substrate color development was assessed at OD490nm with a microplate reader (Bio-Rad 3550). […]

Structure (SMILES) | Phenotypical changes of neoplastic transformation ([1]; 1 μg/ml NNK) | Cytotoxic changes ([1]; 5 and 1 μg NNK/mL) | Appearance of phenotypical changes indicative of neoplastic transformation ([1]; 100, 50, 10 μg NNK/ml) | Cytotoxic changes ([1]; larger concentrations of NNK (100, 50, 10 μg NNK/mL), serum free medium) | Immunosuppression of antibody titer to BMRPA1 cells (Cell-EIA with sera) ([2]; 3 injections of BMRPA1 cells, then cyclophosphamide i.p. for 5 days, 60 μg/day/g body weight) | Staining of rat pancreatic tissue by sera of BMRPA1 immunized, cyclophosphamide-treated mice ([2]; immunohistochemistry on rat pancreas)
CN(CCCC(=O)c1cccnc1)N=O [NNK, 4-(methyl-nitrosamino)-1-(3-pyridyl)-1 butanone] | phenotypical changes characteristic of neoplastic transformation but at a slower rate, over several weeks | observed considerably less | within a week | cytotoxic changes consisting of poorly attached, degenerating, dying cells, and slowed cell growth | – | –
O=P1(N(CCCl)CCCl)NCCCO1 (stereo not drawn) [cyclophosphamide] | – | – | – | – | strong immunosuppression | virtually no staining
